# Laboratory results taken from publication PMC6259748, “Selection of Peptides Targeting Helix 31 of Bacterial 16S Ribosomal RNA by Screening M13 Phage-Display Libraries” (Molecules, 2011).
# T1: TYLPWPA peptide (synthetic (phage display))
# T1 chain: TYLPWPA
# Assays:
# [1] = test system: GFP (EmGFP); assay: SPR; details: m2G966; m5C967 (E. coli numbering); 5' phosphorothioate; SPR: 10 mM Tris-HCl pH 7.5, 150 mM NaCl, 10 mM MgCl2, 1 mM DTT, 0.005% P20, 50 uL/min, streptavidin-coated CM5 chip; CD: 10 mM sodium phosphate pH 7, 100 mM …
# [2] = test system: CVRPFAL-GFP (synthetic fusion (expressed by L-arabinose induction)); assay: SPR; details: m2G966; m5C967 (E. coli numbering); 5' phosphorothioate; SPR: 10 mM Tris-HCl pH 7.5, 150 mM NaCl, 10 mM MgCl2, 1 mM DTT, 0.005% P20, 50 uL/min, streptavidin-coated CM5 chip; CD: 10 mM sodium phosphate pH 7, 100 mM …
# [3] = test system: TLWDLIP-GFP (synthetic fusion (expressed by L-arabinose induction)); assay: SPR; details: m2G966; m5C967 (E. coli numbering); 5' phosphorothioate; SPR: 10 mM Tris-HCl pH 7.5, 150 mM NaCl, 10 mM MgCl2, 1 mM DTT, 0.005% P20, 50 uL/min, streptavidin-coated CM5 chip; CD: 10 mM sodium phosphate pH 7, 100 mM …
# [4] = test system: TYLPWPA-GFP (synthetic fusion (expressed by L-arabinose induction)); assay: SPR; details: m2G966; m5C967 (E. coli numbering); 5' phosphorothioate; SPR: 10 mM Tris-HCl pH 7.5, 150 mM NaCl, 10 mM MgCl2, 1 mM DTT, 0.005% P20, 50 uL/min, streptavidin-coated CM5 chip; CD: 10 mM sodium phosphate pH 7, 100 mM …
# [5] = test system: wild-type modified h31; assay: surface plasmon resonance (SPR), modified h31; assay type: binding, E. coli
# Procedure: Modified h31 was labeled with biotin in order to immobilize the RNA onto a surface and determine the kinetics of peptide binding by surface plasmon resonance (SPR). […] In order to enhance the signal-to-noise ratio, a GFP-protein-fused peptide, TYLPWPA-GFP, was generated and used as the analyte.
# Biotinylated, modified h31 RNA was immobilized onto a streptavidin-coated CM5 chip and differing concentrations of TYLPWPA-GFP (10–100 µM) were injected as the analyte. A range of salt concentrations, detergent levels, pH conditions, and flow rates were tested, since these factors affect the peptide-RNA complex formation (data not shown). The apparent dissociation constants were determined under the following optimized conditions: 10 mM Tris·HCl, 150 mM NaCl, 10 mM MgCl2, 1 mM dithiothreitol (DTT), 0.005% (v/v) P20 at pH 7.5 as the running buffer at a flow rate of 50 μL/min.
# All immobilization and subsequent binding studies were performed using a BIAcore 2000 instrument set at a temperature of 25 °C. Standard dextran surface BIAcore sensorchips (Sensor chip CM5) were purchased from BIAcore (GE Healthcare, Piscataway, NJ). Standard desorb and sanitize routines were performed according to the BIAcore guidelines before docking a new CM5 sensor chip. All buffers were filtered through sterile 0.2 μm nylon membranes (Millipore™) under vacuum. Before derivatizing the flow cells with streptavidin, the CM5 sensor chip was pre-conditioned using three successive 10 μL injections of chip-preparation solution (10 mM NaOH, 500 mM NaCl) at 100 μL/min, followed by a normalization routine using BIAnormalizing solution (40% glycerol). Streptavidin derivatization was performed according to standard procedures.
# Prior to immobilization, the solution of biotinylated RNA in HBS-EP buffer (10 mM HEPES, 3 mM EDTA, 150 mM NaCl, 0.005% P20 at pH 7.4) was renatured by heating to 90 °C for 2 min, cooling gradually to room temperature, and placing on ice. Flow cells were functionalized by injecting 30 μL of RNA at a time using the MANUAL INJECT command at a flow rate of 10 μL/min, until the desired immobilization level was reached. One of the flow cells was used to immobilize RNA, while the adjacent cell remained unmodified to serve as a blank-control for matrix effects. Levels of RNA captured were calculated by subtracting […] for each flow cell. After RNA immobilization, both flow cells were blocked with 100 μL of 1 mg/mL biotin at 5 μL/min.
# For the SPR experiments, the peptides were cloned into plasmid pBacEmGH (Cunningham Lab, to be described elsewhere) under transcriptional regulation of a PBAD promoter. Upon induction with L-arabinose, the resulting construct produces a fusion protein in which the peptide is fused to the N-terminus of EmGFP containing a C-terminus 6 x His affinity tag (PEP-EmGFP-6 x His).
# Peptide samples were prepared by serial dilutions from stock solutions. Dilutions were made in running buffer (10 mM Tris·HCl, 150 mM NaCl, 10 mM MgCl2, 1 mM DTT, 0.005% (v/v) P20 at pH 7.5). All procedures for binding were automated, as optimized methods using repetitive cycles of sample injection and regeneration. Typically, running buffer was injected for ~30 min prior to experiment to establish a stable baseline value. Peptide solutions (200 μL) were injected at a kinetic flow rate of 50 μL/min, using the KINJECT command. All peptide samples were injected from 7 mm plastic vials (BIAcore) that were capped with pierceable plastic-crimp-caps to minimize carry-over and sample evaporation. Samples were injected in order of increasing concentration. The surface was regenerated using 150 μL of 500 mM NaCl. The data were fit to a 1:1 binding Langmuir model using BIAevaluation 3.0 software. […]
# [6] = test system: translation of green fluorescent protein (GFP); assay: coupled in vitro transcription-translation inhibition assay (GFP); assay type: biochemical, E. coli; details: for inhibition of in vitro protein synthesis: cell-free translation, summary statement; for GFP fluorescence lower compared to DIRTQRE: peptide 1 mM, at 120 min, ex 487 nm; for order of translation inhibition by peptides (from high to low) / inhibitory effect on protein translation: peptides at 1 mM, GFP fluorescence; for inhibitory effect on protein translation: in words
# Procedure: A cell-free translation assay was used to test the potential inhibitory effects of the peptides on protein synthesis. Different concentrations of peptides were added to E. coli S30 extracts and the extent of inhibition was monitored by the measurement of green fluorescent protein (GFP) translation.
# The inhibitory effects of selected peptides (DIRTQRE, CVRPFAL, FVRPFAL, TLWDLIP and TYLPWPA) on cellular processes were determined by in vitro coupled transcription-translation inhibition assay. The PURExpress™ in vitro protein synthesis kit #E6800S from New England Biolabs (Beverly, MA) was used for this purpose. A DNA template for GFP (pRSETEmGFP plasmid, Invitrogen) was employed at a concentration of 10 µg/mL in a 15 µL of reaction volume. Different concentrations of peptides were added, ranging from 300 µM to 2 mM. The DNA template was added only after mixing of the peptides or streptomycin so that they could bind to their target region first. For the control, streptomycin was added at a final concentration of 300 µM. The reaction was incubated in 384-well, Costar, clear-well, black plates and in situ incubated at 37 °C in a Gemini XPS microplate spectrofluorometer (Molecular Devices, Sunnyvale, CA) and the amount of GFP produced was monitored at different time intervals from 0 min to 2 h by fluorescence (excitation at 487 nm, emission at 509 nm).
# [7] = test system: GFP-S11-labeled 30S subunits; assay: ribosome-binding assay on Tentagel beads; parameters: species or system E. coli; details: for order of binding preference by the 30S subunits (from high to low): fluorescence microscopy, pH 7.3; for fluorescence on beads after 30S binding: peptide on Tentagel beads, 30S subunits overnight at 4 °C, 20 mM HEPES, pH 7.3, 10 mM MgCl2, 100 mM KCl, duplicate
# Procedure: The purpose of this experiment was to determine whether the selected peptides have affinity for bacterial ribosomes. The binding affinities of various peptides could also be compared by this method. Small ribosomal subunits, 30S, labeled with GFP on ribosomal protein S11 were added to peptides covalently attached to Tentagel beads (Figure 4A). […] The peptides were chemically synthesized on Tentagel beads with their N-termini exposed. Increasing concentrations of GFP-tagged 30S subunits were added to the Tentagel-bound peptides and unbound 30S subunits were removed by washing. Relative fluorescence intensity of the 30S subunits bound to the peptides on bead was determined by imaging on a fluorescence microscope, with the assumption that the level of fluorescence on the beads was proportional to the affinity of the ribosome for the peptide sequence.
# Four peptides isolated from the phage-display experiment, […], DIRTQRE, TLWDLIP, and […], were synthesized on Tentagel (Rapp Polymer, Tübingen, Germany) beads using standard Fmoc synthesis. The beads were stored in DMF until use. The beads were then washed three times with 450 μl of water, and three times with 450 μL of the binding buffer B (binding buffer: 20 mM HEPES, pH 7.3, 10 mM MgCl2, 100 mM KCl), using 0.45 μm MWCO Nanosep (Pall Corporation, Ann Arbor, MI). The beads were then centrifuged at 6,000 rpm for 1–2 min.
# Fluorescently labeled 30S subunits were isolated by sucrose gradient centrifugation in 5 mM Mg^2+ [82]. For control experiments, His(6)-EmGFP-S11 was purified using IMAC resin (Bio-Rad, Hercules, CA) and the fluorescence was assayed using beads carrying peptides with ribosomes, beads carrying peptides with His(6)-EmGFP-S11 (no ribosomes) and beads only with ribosomes (no peptides).
# The fluorescent ribosomes were incubated in binding buffer B (20 mM HEPES, pH 7.3, 10 mM MgCl2, 100 mM KCl) at 37 °C for 30 min. Next, 25 pmoles of ribosome solution was added to each peptide, and the mixture was incubated overnight at 4 °C with agitation. Unbound ribosomes were removed by two 450 μL washes with binding buffer B and centrifugation at 6,000 rpm for 1–2 min. The beads were resuspended in 40 μL of binding buffer B for microscope screening and kept on ice until scanning. The beads (20 μL) were spread on microscope slides for scanning (Olympus 1X71 microscope, TH4 100 Olympus lamp, Olympus UCMAD 3 camera, 20× magnification). An average of two pictures were taken per slide, eliminating beads presenting uneven swelling and cracks.
# [8] = molecular target: T1, TYLPWPA peptide; assay: fluorescence titration (quenching); 10 mM HEPES, 50 mM NaCl, 1 mM Na2EDTA, pH 7.5, 25 C; apparent, 7% signal change; SPR: 10 mM Tris-HCl pH 7.5, 150 mM NaCl, 10 mM MgCl2, 1 mM DTT, 0.005% P20, 50 uL/min, streptavidin-coated CM5 chip; CD: 10 mM sodium phosphate pH 7, 100 mM NaCl, 0.1 mM Na2EDTA, 25 C; fluorescence: 10 mM HEPES pH 7.5, 50 mM NaCl, 1 mM Na2EDTA, 25 C; details: label: 5'-fluorescein; hairpin
# [9] = molecular target: T1, TYLPWPA peptide; assay: CD titration; 100 mM NaCl, 10 mM sodium phosphate, 0.1 mM Na2EDTA, pH 7.0, 25 C; apparent, poor fit; SPR: 10 mM Tris-HCl pH 7.5, 150 mM NaCl, 10 mM MgCl2, 1 mM DTT, 0.005% P20, 50 uL/min, streptavidin-coated CM5 chip; CD: 10 mM sodium phosphate pH 7, 100 mM NaCl, 0.1 mM Na2EDTA, 25 C; fluorescence: 10 mM HEPES pH 7.5, 50 mM NaCl, 1 mM Na2EDTA, 25 C; details: hairpin
molecule,measurement,setting,value
"GUUCGAUGCAACGCGAAC [modified h31 (wild-type), biotinylated]",Kd,[1],20 µM
same,Kd,[2],230 nM
same,Kd,[3],330 nM
same,Kd,[4],28 µM
TYLPWPA-GFP,ka (association rate constant),"[5]; 1:1 Langmuir, 10 mM Tris·HCl, 150 mM NaCl, 10 mM MgCl2, 1 mM DTT, 0.005% P20, pH 7.5, 50 μL/min, 25 °C, CM5 chip",(1.50 ± 0.02) × 10^2 M^-1s^-1
same,kd (dissociation rate constant),"[5]; 1:1 Langmuir, pH 7.5, 150 mM NaCl, 10 mM MgCl2, 50 μL/min, 25 °C, CM5 chip",(4.2 ± 0.04) × 10^-3 s^-1
same,KD (kd/ka),"[5]; SPR kinetic analysis, 1:1 Langmuir, pH 7.5, 150 mM NaCl, 10 mM MgCl2, 50 μL/min, 25 °C, TYLPWPA-GFP 10–100 µM",28 ± 1 µM
CVRPFAL [heptapeptide from selection against modified h31 with unmodified h31 counter selection],inhibition of in vitro protein synthesis,[6],inhibit in vitro protein synthesis
same,GFP fluorescence lower compared to DIRTQRE,[6]; em 509 nm,four
same,order of translation inhibition by peptides (from high to low),[6]; 37 °C,CVRPFAL ≈ FVRPFAL > TLWDLIP > TYLPWPA > DIRTQRE
same,inhibitory effect on protein translation,[6],best inhibitory effects
same,order of binding preference by the 30S subunits (from high to low),[7]; Tentagel beads,TYLPWPA > CVRPFAL ≈ TLWDLIP > DIRTQRE
same,fluorescence on beads after 30S binding,[7],Fluorescence is observed
same,binding affinity to modified h31,"[5]; in words, comparable to known antibiotics targeting 16S rRNA",high nM
FVRPFAL [heptapeptide selected against wild-type modified h31],inhibition of in vitro protein synthesis,[6],promising results in the in vitro translation assay
same,GFP fluorescence lower compared to DIRTQRE,[6]; em 509 nm,four
same,order of translation inhibition by peptides (from high to low),[6]; 37 °C,CVRPFAL ≈ FVRPFAL > TLWDLIP > TYLPWPA > DIRTQRE
same,inhibitory effect on protein translation,[6],best inhibitory effects
"[H]/N=C(/N)N[C@H]1[C@H](O)[C@@H](O)[C@H](O[C@@H]2O[C@@H](C)[C@](O)(C=O)[C@H]2O[C@@H]2O[C@@H](CO)[C@H](O)[C@@H](O)[C@@H]2NC)[C@@H](N/C(N)=N\[H])[C@@H]1O [Streptomycin, streptomycin, reference compound]",inhibition of GFP translation,"[6]; 300 µM, positive control, 37 °C, fluorescence ex 487 nm, em 509 nm",completely inhibited GFP translation
DIRTQRE [heptapeptide selected against wild-type modified h31],order of translation inhibition by peptides (from high to low),[6]; 37 °C,CVRPFAL ≈ FVRPFAL > TLWDLIP > TYLPWPA > DIRTQRE
same,order of binding preference by the 30S subunits (from high to low),[7]; Tentagel beads,TYLPWPA > CVRPFAL ≈ TLWDLIP > DIRTQRE
same,relative binding affinity to 30S subunits,"[7]; Tentagel beads, quantified fluorescence, of the four peptides tested",lowest relative affinity
same,fluorescence on beads after 30S binding,[7],Fluorescence is observed
"GUUCGAUGCAACGCGAAC (structured_RNA, m2G966; m5C967 (E. coli numbering); 5' phosphorothioate) [F-h31 (modified h31, fluorescein)]",Kd,[8],27 ± 4 µM
"GUUCGAUGCAACGCGAAC (structured_RNA, m2G966; m5C967 (E. coli numbering)) [modified h31 (wild-type), unlabeled]",Kd,[9],28 ± 10 µM
